Experiments:
Type in all cases: in vivo
[1] = test system: Western Flower Thrips (Frankliniella occidentalis, FRANOC); assay: Bioassay 3: Western Flower Thrips, cotton leaf disc dip, live WFT counted 3 days after treatment; details: Frankliniella occidentalis, foliar, 72 h; AI alone 0.0003125 % w/v
Method: Stock solutions of Formula One and various active ingredients were prepared initially at a concentration of 8 mg/ml for Formula One and 1 mg/mL for the active ingredients, respectively, using acetone as a diluent. Stock solutions were prepared with Formula One as well as for each of the active ingredients individually. Test solutions were prepared from the stock solutions. Test solutions were prepared containing Formula One, the individual active ingredients, and mixtures of Formula One with each of the active ingredients. The test solution for Formula One was prepared by adding 500 μL of the stock solution to a 25 mL glass vial, then adding 500 μL of acetone, followed by the addition of 9 mL water with 0.025% Tween®) 20 to create a 0.04% (w/v) solution. The test solutions of the individual active ingredients were prepared by adding 500 μL of stock solution to a 25 mL glass vial, then adding 500 μL of acetone, followed by the addition of 9 mL water with 0.025% Tween®) 20 to create a 0.005% (w/v) solution. The test solutions containing mixtures of Formula One and the individual active ingredients were prepared by adding 500 μL of the active ingredient stock solution to a 25 mL glass vial, followed by 500 μL of the Formula One stock solution, then by the addition of 9 mL water with 0.025% Tween®) 20 to create a test solution containing 0.04% (w/v) Formula One and 0.005% (w/v) of the active ingredient. Each test solution was serially diluted to create desired doses of test solutions (0.005% (w/v), 0.00125% (w/v), 0.0003125% (w/v), 0.000078% (w/v), and 0.0000195% (w/v)). In test solutions containing mixtures of Formula One and the active ingredients, the active ingredients were diluted as described above, but the Concentration of Formula One was held constant (0.04% (w/v)).
The test solutions were tested against WFT using the following procedure: Leaf discs (2.7 cm in diameter) were cut from the true leaves of cotton plants. Leaf discs were dipped into the test solutions and shaken to ensure complete coverage of the leaf disc and then placed in Millipore®) PetriSlides containing a filter paper disc. Treated leaf discs were air dried for approximately 1 hour. Each leaf disc was infested with 5 WFT (9-10-day old nymphs) by placement on each leaf disc, and the PetriSlides were capped to prevent escape. Each treatment was replicated three times and the test treatments were held at approximately 26° C. and ambient relative humidity (RH) prior to grading. Reference discs (solvent check) were treated with the diluent only. Evaluation was conducted by counting the number of live WFT under magnification 3 days after treatment. Percent control was measured using Abbott's correction formula (W. S. Abbott, J. Econ. Entomol. 18 (1925), pp. 265-267) as follows:
where X=No. of live nymphs on solvent check leaf discs and Y=No. of live nymphs on treated leaf discs. In Table B3 the “Expected % Control” was calculated using the method described in Colby S. R., Weeds, 1967, 15, 20-22. Bioassay 4: Western Tarnished Plant Bug (Lygus hesperus, LYGUHE) (“WTPB”).

[2] = test system: Diamondback Moth (Plutella xylostella, PLUTMA); assay: Bioassay 6: Diamondback Moth, artificial lepidopteran diet, live larvae after 5 days; details: DBM; AI alone 0.04 % w/v
Method: where X=No. of live nymphs on solvent check and Y=No. of live nymphs on treated bean segments. In Table B5 the “Expected % Control” was calculated using the method described in Colby S. R., Weeds, 1967, 15, 20-22. Bioassay 6: Beet Armyworm (Spodoptera exigua, LAPHEG) (BAW), and Diamondback Moth (Plutella xylostella, PLUTMA) (DBM).
(§1) Stock solutions were prepared with Formula One as well as for each of the active ingredients individually. Test solutions were prepared from the stock solutions. Test solutions were prepared containing Formula One, the individual active ingredients, and mixtures of Formula One with each of the active ingredients. The test solution for Formula One was prepared by adding 500 μL of the stock solution to a 25 mL glass vial, then adding 500 μL of a 9:1 mixture of acetone: water. The individual active ingredients were prepared by adding 500 μL of stock solution to a 25 mL glass vial, then adding 500 μL of a 9:1 mixture of acetone: water. The test solutions containing mixtures of Formula One and the individual active ingredients were prepared by adding 500 μL of the active ingredient stock solution to a 25 mL glass vial, followed by 500 μL of the Formula One stock solution, creating a test solution containing 4000 ppm Formula One and 0.4% (w/v) of the active ingredient. Each test solution was serially diluted to create desired doses of test solutions (0.4% (w/v), 0.04% (w/v), 0.004% (w/v), 0.0004% (w/v), 0.00004% (w/v), and 0.000004% (w/v)). In test solutions containing mixtures of Formula One and the active ingredients, the active ingredients were diluted as described above, but the Concentration of Formula One was held constant (0.4% (w/v)). The highest dose test solution (0.4% (w/v)) was discarded, leaving 5 test solution concentrations used in the test.
The test solutions were tested against BAW and DBM using the following procedure: An artificial lepidopteran diet (Multispecies Lepidopteran Diet, Southland Products) was distributed in 128-cell bioassay trays (Frontier Agricultural Sciences™). 50 μL of test solution was pipetted into a cell in the bioassay tray. (The test solution doses of 0.04% (w/v), 0.004% (w/v), 0.0004% (w/v), 0.00004% (w/v), and 0.000004% (w/v) translated to concentrations of 5, 0.5, 0.05, 0.005, and 0.0005 ug/cm^2 on the diet, respectively.) A reference treatment (solvent check) was treated with the diluent only. […] After 5 days, the number of live larvae were recorded from each cell and percent control was measured using Abbott's correction formula (W. S. Abbott, J. Econ. Entomol. 18 (1925), pp. 265-267) as follows:
where X=No. of live larvae on solvent check and Y=No. of live larvae on treated diet. In Table B6 the “Expected % Control” was calculated using the method described in Colby S. R., Weeds, 1967, 15, 20-22. […]

[3] = test system: Sweet Potato Whitefly (Bemisia tabaci, BEMITA); assay: Bioassay 2: Sweet Potato Whitefly, spray on cotton seedlings at crawler emergence, nymphs counted 7-9 days after treatment; details: AI alone 0.1 (10-5) % w/v
How it was run: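 Cotton seedlings pruned to one true leaf were colonized by adult B. tabaci for 24 h egg-laying, then sprayed once >25% crawler emergence was underway; solutions 0.001% to 0.00000001% (w/v) in acetone/water with 0.025% Tween 20. Held ~25° C; live 2-3 instar nymphs counted 7-9 days later, Abbott-corrected % control.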

[4] = test system: Diamondback Moth (Plutella xylostella, PLUTMA); assay: Bioassay 9: Diamondback Moth, leaves of track-sprayed cabbage plants, mortality and feeding damage scored; details: AI alone 20 (10^-5) Wt %
Method: (§2) where X=No. of live nymphs on solvent check plants and Y=No. of live nymphs on treated plants. In Table B2 the “Expected % Control” was calculated using the method described in Colby S. R., Weeds, 1967, 15, 20-22. Bioassay 9: Diamondback Moth (Plutella xylostella, PLUTMA) (DBM).
as §1
Cabbage seedlings, grown in 3-inch pots with 2-3 small (3-5 centimeter (cm)) true leaves, were used as test substrate. Cabbage plants were sprayed with desired concentrations of Formula One and active ingredients or their mixtures using a track Sprayer. Reference plants (solvent check) were sprayed with diluent only (0.025% Tween® 20 and 10% acetone:methanol (1:1) in water). The sprayed cabbage plants were allowed to dry for 1 hour, after which leaves from each treatment were placed in a cell of a plastic tray. One leaf per cell and 8 replicates for each cell. The tested doses ranged between 0.000001% (w/v) to 0.0002% (w/v). One 2nd instar DBM larvae were placed in each cell of the tray and allowed to feed on the cabbage foliage for […] after which the mortality and feeding damage were scored. Test trays were held at approximately 26° C. and ambient relative humidity (RH) prior to grading. The number of live larvae were recorded from each cell and percent control was measured using Abbott's correction formula (W. S. Abbott, J. Econ. Entomol. 18 (1925), pp. 265-267) as follows:
where X=No. of live larvae on solvent check and Y=No. of live larvae on treated diet. In Table B6 the “Expected % Control” was calculated using the method described in Colby S. R., Weeds, 1967, 15, 20-22.

[5] = test system: Diamondback Moth (Plutella xylostella, PLUTMA); assay: as above; details: Feeding damage control; AI alone 40 (10^-5) Wt %
[6] = test system: Cotton Aphid (Aphis gossypii, APHIGO); assay: Bioassay 7: Cotton Aphid, foliar spray on infested cotton seedlings, live aphids counted three days after treatment
Method: where X=No. of live larvae on solvent check and Y=No. of live larvae on treated diet. In Table B6 the “Expected % Control” was calculated using the method described in Colby S. R., Weeds, 1967, 15, 20-22. Bioassay 7: Cotton Aphid (Aphis gossypii, APHIGO) (“CA”).
Stock solutions of Formula One and one or more of the active ingredients were prepared at concentrations of 1 mg/mL using a 1:1 mixture of acetone: methanol as a diluent. The stock solutions were prepared with Formula One as well as for each of the active ingredients individually. Test solutions were prepared from the stock solutions. Test solutions were prepared containing Formula One, the individual active ingredients, and mixtures of Formula One with each of the active ingredients. The test solutions for Formula One and the individual active ingredients were prepared by adding 1.5 mL of stock solution to a 30 mL glass vial, then adding 1.5 mL of 1:1 acetone: methanol solvent, followed by the addition of 27 mL water with 0.025% Tween® 20 to create a […]. Each test solution was serially diluted to create desired doses of test solutions ranging from 0.000001 to 0.0025% (w/v). The test solutions were tested against CA using the following procedure: cotton seedlings were grown in 3-inch pots with one true leaf (2-5 cm in diameter) were used as test substrate. The seedlings were infested with 20-50 CA (wingless adult and nymph stages) one day prior to chemical application. Four pots with individual seedlings were used for each treatment. A hand-held aspirator-type sprayer was used for spraying a solution to both sides of […] leaves until runoff. Reference plants (solvent check) were sprayed with the diluent only (0.025% Tween® 20 and 10% acetone:methanol (1:1) in water). Treated plants were held in a holding room for three days at approximately 25° C. and ambient relative humidity (RH about 20% to about 45%) prior to grading. Evaluation was conducted by counting the number of live aphids per plant under a microscope three days after treatment. Percent control was measured using Abbott's correction formula (W. S. Abbott, J. Econ. Entomol. 18 (1925), pp. 265-267) as follows:
(§3) where X=No. of live aphids on solvent check plants and Y=No. of live aphids on treated plants. In Table B1 the “Expected % Control” was calculated using the method described in Colby S. R., Weeds, 1967, 15, 20-22. Bioassay 8: Sweet Potato Whitefly (Bemisia tabaci, BEMITA) (“SPW”).

[7] = test system: Sweet Potato Whitefly (Bemisia tabaci, BEMITA); assay: Bioassay 8: Sweet Potato Whitefly, spray on cotton seedlings at crawler emergence, nymphs counted 7-9 days after treatment
Method: as §3
Stock solutions were prepared with Formula One as well as for each of the active ingredients individually. Test solutions were prepared from the stock solutions. Test solutions were prepared containing Formula One, the individual active ingredients, and mixtures of Formula One with each of the active ingredients. The test solutions for Formula One and the individual active ingredients were prepared by adding 500 μL of stock solution to a 25 mL glass vial, then adding 500 μL of acetone, followed by the addition of 9 mL water with 0.025% Tween®) 20 to create a 0.001% (w/v) solution. The test solutions containing mixtures of Formula One and the individual active ingredients were prepared by adding 500 μL of the active ingredient stock solution to a 25 mL glass vial, followed by 500 μL of the Formula One stock solution, then by the addition of 9 mL water with 0.025% Tween®) 20 to create a test solution containing 0.001% (w/v) Formula One and 0.001% (w/v) of the active ingredient. Each test solution was serially diluted to create desired doses of test solutions (0.001% (w/v), 0.0001% (w/v), 0.00001% (w/v), 0.000001% (w/v), 0.0000001% (w/v), […] and 0.00000001% (w/v)).
The test solutions were tested against SPW using the following procedure: Cotton seedlings grown in 3-inch pots, pruned so that only one true leaf remained, were used as test substrate. Adult B. tabaci were allowed to colonize the cotton plants and lay eggs for 24 hours after which all adults were removed from the plants using compressed air. Plants were monitored for egg development and, when crawler emergence was underway (>25% emergence based on visual examination using a microscope), the plants were sprayed using the test solutions and methods described above for green peach aphids (GPA). Treated plants were held in a holding room at approximately 25° C. and ambient relative humidity (RH) prior to grading. Evaluation was conducted by counting the number of developed 2-3 instar nymphs per plant under a microscope 7-9 days after treatment. Percent control was measured using Abbott's correction formula (W. S. Abbott, J. Econ. Entomol. 18 (1925), pp. 265-267) as follows:
as §2

Compound	pest or weed control at 0.0003125 % strength [1] [%]	Average % Control AI [2] [%]	Average % Control AI [3] [%]	Average % Control AI ([4]; Acute mortality) [%]	Average % Control AI ([4]; Feeding damage control) [%]	Average % Control AI [5] [%]	Average % Control A1 ([6]; AI alone 0.2 (10^-5) Wt %) [%]	Average % Control A1 ([6]; AI alone 7 (10^-5) Wt %) [%]	Average % Control A1 ([6]; AI alone 12 (10^-5) Wt %) [%]	Average % Control A1 ([7]; AI alone 0.1 (10^-5) Wt %) [%]	Average % Control A1 ([7]; AI alone 0.8 (10^-5) Wt %) [%]
CNC(=O)O/N=C(\SC)C(=O)N(C)C [Oxamyl]	0	0	0								
Spidoximat				0.00	17.83	37.98	13.25	32.54	35.09	37.90	62.26

From US20250338846A1, “COMPOSITIONS HAVING PESTICIDAL UTILITY AND PROCESSES RELATED THERETO” (CORTEVA AGRISCIENCE, LLC, priority 2022, published 2025)
